In ChEMBL document CHEMBL1124667 (1989) one finds Activity and relative binding affinity (RBA) data, which are given here for 21 compounds.

Experiment [1] concerns MCF7. The experiment is described as follows: Growth inhibitory activity against MCF-7 human breast tumor cell line at a concentration of 10e-7 M in vitro. It is filed as functional. Further details: scale not given: the % may be the effect or the level left.
The subject of experiment [2] is MCF7. The experiment is described as follows: Growth inhibitory activity against MCF-7 human breast tumor cell line at a concentration of 10e-6 M in vitro. It is filed as functional. Further details: scale not given: the % may be the effect or the level left.
The subject of experiment [3] is MCF7. The experiment is described as follows: Growth inhibitory activity against MCF-7 human breast tumor cell line at a concentration of 10e-8 M in vitro. The experiment is classed as functional. Further details: scale not given: the % may be the effect or the level left.
The target of experiment [4] is Estrogen receptor (Homo sapiens) (UniProt Q92731+P03372). The experiment is described as follows: Relative binding affinity against estrogen receptors in MCF-7 whole cells. It is filed as cell-based. The note with it: MCF7.

For the compound `CC/C(=C(\c1ccc(OCCN(C)C)cc1)c1ccc([S+](C)[O-])cc1)c1ccccc1` (centres undefined), the Activity in experiment [1] was 135%; in experiment [2], 67%; in experiment [3], 112%.
Taken in the same sequence, the figures for `CC/C(=C(/c1ccc(OCCN(C)C)cc1)c1ccc(S(C)(=O)=O)cc1)c1ccccc1` were 75%, 29% and 125%.
Consider `CC/C(=C(\c1ccc(Cl)cc1)c1ccc(OCCN(C)C)cc1)c1ccccc1`, for which the Activity in experiment [1] is on record as 119%; in experiment [2] it was 56%; in experiment [3], 116%.
The corresponding values for `CC/C(=C(\c1ccc(S)cc1)c1ccc(OCCN(C)C)cc1)c1ccccc1` are 110%, 147% and 94%.
The corresponding values for `CC/C(=C(\c1ccc(C=O)cc1)c1ccc(OCCN(C)C)cc1)c1ccccc1` are 38%, 42% and 62%.
Taken in the same sequence, the figures for `CC/C(=C(/c1ccc(Br)cc1)c1ccc(OCCN(C)C)cc1)c1ccccc1` were 163%, 174% and 110%.
Regarding `CC/C(=C(/c1ccc(OCCN(C)C)cc1)c1cccc(I)c1)c1ccccc1`, the Activity in experiment [1] was 68%; in experiment [2], 27%; in experiment [3], 100%.
On to `CC/C(=C(\c1ccccc1)c1ccc(OCCN(C)C)cc1)c1ccccc1` [TAMOXIFEN], for which the Activity in experiment [1] stood at 100%; in experiment [2], 70%; in experiment [3], 119%.
Taken in the same sequence, the figures for `CC/C(=C(/c1ccc(OCCN(C)C)cc1)c1ccc(SC)cc1)c1ccccc1` were 66%, 54% and 154%.
For the compound `CC/C(=C(/c1ccc(OCCN(C)C)cc1)c1ccc(C2CO2)cc1)c1ccccc1` (centres undefined), the Activity in experiment [1] is 42%; in experiment [2] it was 19%; in experiment [3], 113%.
The corresponding values for `CC/C(=C(\c1ccc(OCCN(C)C)cc1)c1ccc(SC)cc1)c1ccccc1` are 117%, 69% and 102%.
The corresponding values for `CC/C(=C(/c1ccc(I)cc1)c1ccc(OCCN(C)C)cc1)c1ccccc1` are 126%, 120% and 99%.
Turning to `CC/C(=C(\c1ccc(CO)cc1)c1ccc(OCCN(C)C)cc1)c1ccccc1`, the Activity is given as 145% in experiment [1], 150% in experiment [2] and 164% in experiment [3]. In experiment [4], the relative binding affinity (RBA) is 1.5.
Turning to `CC/C(=C(\c1ccc(Br)cc1)c1ccc(OCCN(C)C)cc1)c1ccccc1`, the Activity was found to be 101% in experiment [1], 63% in experiment [2] and 130% in experiment [3].
The corresponding values for `CCC(=C(c1ccc(O)cc1)c1ccc(OCCN(C)C)cc1)c1ccccc1` are 38%, 15% and 48%.
The corresponding values for `CC/C(=C(/c1ccccc1)c1ccc(OCCN(C)C)cc1)c1ccccc1` are 140%, 137% and 135%.
Taken in the same sequence, the figures for `CC/C(=C(\c1ccc(I)cc1)c1ccc(OCCN(CC)CC)cc1)c1ccccc1` were 35%, 23% and 101%.
In the case of `CC/C(=C(/c1ccc(OCCN(C)C)cc1)c1ccc([S+](C)[O-])cc1)c1ccccc1` (centres undefined), the Activity was determined as 237% in experiment [1], 238% in experiment [2] and 177% in experiment [3].
The corresponding values for `CC/C(=C(\c1ccc(I)cc1)c1ccc(OCCN2CCCC2)cc1)c1ccccc1` [IDOXIFENE] are 27%, 20% and 84%.
Taken in the same sequence, the figures for `CC/C(=C(\c1ccc(I)cc1)c1ccc(OCCN(C)C)cc1)c1ccccc1` were 42%, 26% and 115%.
Taken in the same sequence, the figures for `CC/C(=C(\c1ccc(OCCN(C)C)cc1)c1ccc(S(C)(=O)=O)cc1)c1ccccc1` were 114%, 140% and 88%.
